# Assay results reported in ChEMBL document CHEMBL1157535, “2-Aminobenzophenones as a novel class of bradykinin B1 receptor antagonists” (J Med Chem, 2008).
# Assays:
# [1] = in vivo; settings: mongrel, dog, iv, 0.25 mg/kg, t1/2
# [2] = Metabolic stability in Sprague-Dawley rat liver microsomes after 30 mins; type: ADME, Microsome; settings: read-out: Stability
# [3] = in vivo; settings: Sprague-Dawley, rat, iv, 2 mg/kg
# [4] = in vivo; settings: mongrel, dog, iv, 0.25 mg/kg, CL
# [5] = Metabolic stability in monkey liver microsomes after 30 mins; type: ADME, Macaca mulatta, Microsome; settings: rhesus monkey, read-out: Stability
# [6] = Metabolic stability in human liver microsomes after 30 mins; type: ADME, Microsome; settings: read-out: Stability
# [7] = Metabolic stability in Beagle dog liver microsomes after 30 mins; type: ADME, Canis lupus familiaris, Microsome; settings: read-out: Stability
# [8] = system: human MDR1 (P-gp); assay: (§1) Apparent permeability in pig LLC-PK1 cells transfected with human MDR1; type: ADME, cell-based, Sus scrofa; settings: LLC-PK1
# [9] = species on record: Rattus norvegicus; settings: in vivo
# [10] = in vivo; settings: Sprague-Dawley, rat, po, 10 mg/kg, F
# [11] = in vivo; settings: Sprague-Dawley, rat, t1/2
# [12] = species on record: Canis familiaris; settings: dog, in vivo, iv, 0.25 mg/kg
# [13] = species on record: Rattus norvegicus; settings: in vivo, po, 10 mg/kg
# [14] = system: LLC-PK1; assay: as §1; type: ADME, cell-based, Sus scrofa; settings: llc-pk1
# [15] = system: Brain; assay: Drug level in transgenic rat brain at 1.2 mg/kg, iv; type: ADME, organism-based; parameters: dose 1.2 mg/kg, route intravenous; settings: in vivo
# [16] = system: Plasma; assay: Drug level in transgenic rat plasma at 12 mg/kg, iv; type: ADME, organism-based; parameters: dose 12 mg/kg, route intravenous; settings: in vivo
# [17] = system: Plasma; assay: Drug level in transgenic rat plasma at 1.2 mg/kg, iv; type: ADME, organism-based; parameters: dose 1.2 mg/kg, route intravenous; settings: in vivo
# [18] = system: Spinal cord; assay: Drug level in transgenic rat spinal cord at 12 mg/kg, iv; type: ADME, organism-based; parameters: dose 12 mg/kg, route intravenous; settings: in vivo
# [19] = system: Brain; assay: Drug level in transgenic rat brain at 0.12 mg/kg, iv; type: ADME, organism-based; parameters: dose 0.12 mg/kg, route intravenous; settings: in vivo
# [20] = system: Spinal cord; assay: Drug level in transgenic rat spinal cord at 0.12 mg/kg, iv; type: ADME, organism-based; parameters: dose 0.12 mg/kg, route intravenous; settings: in vivo
# [21] = system: Spinal cord; assay: Drug level in transgenic rat spinal cord at 1.2 mg/kg, iv; type: ADME, organism-based; parameters: dose 1.2 mg/kg, route intravenous; settings: in vivo
# [22] = system: Brain; assay: Drug level in transgenic rat brain at 12 mg/kg, iv; type: ADME, organism-based; parameters: dose 12 mg/kg, route intravenous; settings: in vivo
# [23] = system: Plasma; assay: Drug level in transgenic rat plasma at 0.12 mg/kg, iv; type: ADME, organism-based; parameters: dose 0.12 mg/kg, route intravenous; settings: in vivo
half-life [1],clearance [3],clearance [4],Papp [8],t1/2 [9],bioavailability [10],half-life [11],t1/2 [12],Structure (SMILES),also measured
0.5 h,26 mL/min/kg,7.5 mL/min/kg,27 ×10⁻⁶ cm/s,0.3 h,3%,,,CC(=O)Nc1ccc(S(=O)(=O)Nc2ccccc2C(=O)c2ccccc2)cc1,remaining at 0.5 h [2]: < 10%; remaining at 0.5 h [5]: < 10%; remaining at 0.5 h [6]: < 10%; remaining at 0.5 h [7]: < 10%
2.8 h,26 mL/min/kg,,,,< 1%,1.1 h,,O=C(Nc1ccc(S(=O)(=O)Nc2ccccc2C(=O)c2ccc(F)cn2)cc1)OCC1CCCO1 (stereo in doubt; 32),
1.5 h,29 mL/min/kg,17 mL/min/kg,34 ×10⁻⁶ cm/s,14 h,41%,,,O=C(NCCCN1CCCCC1)Nc1ccc(S(=O)(=O)Nc2ccccc2C(=O)c2ccccc2)cc1,
,,,,,,,2.6 h,O=C(Nc1ccc(S(=O)(=O)Nc2ccccc2C(=O)c2ccccn2)cc1)OCC1CCCO1 (stereo in doubt; 28),
2.2 h,40 mL/min/kg,2.9 mL/min/kg,33 ×10⁻⁶ cm/s,,,1.7 h,,O=C(Nc1ccc(S(=O)(=O)Nc2ccccc2C(=O)c2ccccn2)cc1)OCC1CCCO1 (stereo in doubt; 29),F [13]: 3%
,,,26 ×10⁻⁶ cm/s,,,,1.8 h,O=C(Nc1ccc(S(=O)(=O)Nc2ccccc2C(=O)c2ccc(F)cn2)cc1)OCC1CCCO1 (stereo in doubt; 30),
,,,,1.4 h,,,1.4 h,O=C(Nc1ccc(S(=O)(=O)Nc2ccccc2C(=O)c2ccccn2)cc1)OCC1CCCO1 (racemic),F [13]: 17%; Papp [14]: 31 ×10⁻⁶ cm/s
1.9 h,43 mL/min/kg,17 mL/min/kg,26 ×10⁻⁶ cm/s,9.7 h,3%,,,O=C(Nc1ccc(S(=O)(=O)Nc2ccccc2C(=O)c2ccccc2)cc1)OCC1CCCO1 (stereo not drawn),concentration [15]: 438 nM; concentration [16]: 13200 nM; concentration [17]: 995 nM; concentration [18]: 9430 nM; concentration [19]: 70 nM; concentration [20]: 97 nM; concentration [21]: 597 nM; concentration [22]: 5840 nM; concentration [23]: 80 nM

Structure (SMILES),half-life [1],clearance [3],clearance [4],Papp [8],t1/2 [9],bioavailability [10],half-life [11],t1/2 [12],also measured
CC(=O)Nc1ccc(S(=O)(=O)Nc2ccccc2C(=O)c2ccccn2)cc1,1.2 h,24 mL/min/kg,1.2 mL/min/kg,,,11%,1.2 h,,
